The values below are quoted from earlier work in US20180360817A1, “EXTENDED RELEASE OSMOTIC DOSAGE FORM COMPRISING HIGH METHYLPHENIDATE HYDROCHLORIDE LOAD” (CADILA HEALTHCARE LIMITED, priority 2015, published 2018).

Where two headings read alike, the source gives them in different places.

On to `COC(=O)C(c1ccccc1)C1CCCCN1.Cl` (racemic) [Methylphenidate hydrochloride, d,l (racemic) methyl α-phenyl-2-piperidineacetate hydrochloride], for which the Solubility entry runs as follows: (in acetone) “slightly soluble”; (in alcohol) “soluble”; (in chloroform) “slightly soluble”; (in methanol) “freely soluble”; (in water) “freely soluble”.
